# Target: EGFR (UniProt P00533)
# Conditions: not given
# Sequence of EGFR (P00533 whole entry, looked up): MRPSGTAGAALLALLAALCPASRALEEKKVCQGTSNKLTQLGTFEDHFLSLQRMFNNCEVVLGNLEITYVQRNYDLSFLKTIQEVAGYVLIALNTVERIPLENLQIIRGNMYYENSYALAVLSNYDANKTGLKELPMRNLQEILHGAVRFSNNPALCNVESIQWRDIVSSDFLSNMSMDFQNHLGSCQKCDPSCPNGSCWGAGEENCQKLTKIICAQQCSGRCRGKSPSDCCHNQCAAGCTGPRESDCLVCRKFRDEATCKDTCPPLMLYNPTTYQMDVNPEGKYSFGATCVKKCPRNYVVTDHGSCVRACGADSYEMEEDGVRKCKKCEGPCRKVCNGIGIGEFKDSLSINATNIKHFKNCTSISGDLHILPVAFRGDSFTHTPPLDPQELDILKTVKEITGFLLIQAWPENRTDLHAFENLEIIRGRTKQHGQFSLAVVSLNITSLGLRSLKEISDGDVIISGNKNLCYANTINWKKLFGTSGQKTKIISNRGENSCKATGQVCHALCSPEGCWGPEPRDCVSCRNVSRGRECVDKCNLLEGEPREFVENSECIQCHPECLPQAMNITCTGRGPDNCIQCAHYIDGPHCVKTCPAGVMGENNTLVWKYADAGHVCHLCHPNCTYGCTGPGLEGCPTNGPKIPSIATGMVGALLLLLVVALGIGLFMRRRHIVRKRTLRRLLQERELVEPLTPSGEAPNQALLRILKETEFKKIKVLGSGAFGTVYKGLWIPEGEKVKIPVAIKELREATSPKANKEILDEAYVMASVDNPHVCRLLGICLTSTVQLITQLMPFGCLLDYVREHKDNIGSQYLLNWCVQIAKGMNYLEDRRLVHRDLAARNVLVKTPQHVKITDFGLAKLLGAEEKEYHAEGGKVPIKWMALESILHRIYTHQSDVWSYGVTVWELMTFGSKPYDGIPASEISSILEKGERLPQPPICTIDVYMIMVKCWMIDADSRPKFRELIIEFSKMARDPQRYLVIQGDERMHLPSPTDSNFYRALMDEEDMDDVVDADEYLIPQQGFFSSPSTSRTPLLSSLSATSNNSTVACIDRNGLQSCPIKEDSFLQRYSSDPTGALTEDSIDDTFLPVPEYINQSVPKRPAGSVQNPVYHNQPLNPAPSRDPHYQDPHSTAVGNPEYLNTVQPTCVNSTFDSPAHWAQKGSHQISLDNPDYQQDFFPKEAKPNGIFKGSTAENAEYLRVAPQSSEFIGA
row,SMILES,IC50 [nM]
1,CC(C)(C)OC(=O)[C@H]1CCCN1Cc1ccc2ncnc(Nc3ccc4c(cnn4Cc4ccccc4)c3)c2c1,100 to 1000
2,NC(=O)CNCc1ccc2ncnc(Nc3ccc4c(cnn4Cc4ccccc4)c3)c2c1,< 100
3,CN(CC(N)=O)Cc1ccc2ncnc(Nc3ccc4c(cnn4Cc4ccccc4)c3)c2c1,< 100
4,CS(=O)(=O)CCNCc1ccc2ncnc(Nc3ccc4c(cnn4Cc4ccccc4)c3)c2c1,< 100
5,O=C(O)CNCc1ccc2ncnc(Nc3ccc4c(cnn4Cc4ccccc4)c3)c2c1,< 100
6,NC(=O)[C@@H]1CCCN1Cc1ccc2ncnc(Nc3ccc4c(cnn4Cc4ccccc4)c3)c2c1,< 100

# Target: EGFR (human) (UniProt P00533)
# Conditions: hn5
# Sequence of EGFR (human) (P00533 whole entry, looked up): as above
row,SMILES,IC50 [nM]
1,CS(=O)(=O)CCNCCCCOc1ccc2ncnc(Nc3ccc(OCc4cccc(F)c4)c(Cl)c3)c2c1,5000 to 25000
2,CN(CCCOc1ccc2ncnc(Nc3ccc(OCc4ccccc4)cc3)c2c1)CCS(C)(=O)=O,< 5000
3,CS(=O)(=O)CCNCCCOc1ccc2ncnc(Nc3ccc(OCc4ccccc4)cc3)c2c1,5000 to 25000
4,CS(=O)(=O)CCNCCCCOc1ccc2ncnc(Nc3ccc(OCc4ccccc4)cc3)c2c1,< 5000
5,CS(=O)(=O)CCNCCCCOc1ccc2ncnc(Nc3ccc(S(=O)(=O)c4ccccc4)cc3)c2c1,< 5000
